# Measured values reported in EPA's ToxValDB 9.5 (doi:10.2903/j.efsa.2013.3212).
# Tests used:
# [1] = test system: Typhlodromus pyri; assay: LR50; higher = less toxic
# [2] = test system: Rattus norvegicus; conditions: for NOAEL: hematological
# [3] = test system: Oncorhynchus mykiss; conditions: acute; duration: 96 hours; mortality
# [4] = test system: Tagia sp.; conditions: acute; duration: 14 days; mortality
# [5] = test system: Anas platyrhynchos; conditions: for LD50: oral, mortality
# [6] = test system: Apis mellifera; conditions: acute; duration: 48 hours; oral; unspecified; mortality
# [7] = test system: Colinus virginianus; conditions: reproduction developmental; reproduction
# [8] = test system: Coturnix japonica; conditions: acute, oral, mortality
# [9] = test system: Plant; conditions: not reported; no effects
# [10] = test system: Daphnia magna; conditions: chronic/long-term; duration: 21 days; reproduction
# [11] = test system: Canidae; conditions: chronic; duration: 1 years; oral; Dog Other; hematological
# [12] = test system: Pleurozium sp.; conditions: acute; duration: 72 hours; biomass
smiles,measurement,setting,value
CCCCCCCCCCCCC1=C(OC(C)=O)C(=O)c2ccccc2C1=O [Acequinocyl],LR50,"[1]; acute, duration: 7 days, mortality",8.52 g/ha
same,LR50,"[1]; not reported, reproduction",10 g/ha
same,LD50,"[2]; acute, oral, mortality",> 4860 mg/kg
same,NOAEL,"[2]; chronic, duration: 2 years",2.3 mg/kg-day
same,NOAEL,"[2]; repeat dose other, oral",8 mg/kg-day
same,NOAEL,[2]; reproduction developmental,6.9 mg/kg-day
same,LC50,[3],65 µg/mL
same,LC50,[4],> 1000 mg/kg
same,LD50,"[5]; acute, unspecified",> 1940 mg/kg
same,NOEL,"[5]; reproductive, reproduction",7.48 mg/kg
same,LD50,"[5]; short-term, feed",> 1340 mg/kg
same,LD50,[6],> 100 µg/piece
same,NOEL,[7],217 mg/kg-day
same,LD50,[8]; diet,> 847 mg/kg
same,LD50,[8],> 1940 mg/kg
same,LEL,[9],5000 g/ha
same,NOEC,[10],0.00098 mg/L
same,NOAEL,[11],5 mg/kg-day
same,LC50,[12],0.93 µg/mL
